Common to all, as to assay type: physicochemical
A short description of data set [1]: Crystal sizes measured by laser diffraction. The conditions noted are these: for Particle Diameter, 10% particles under given diameter / Particle Diameter, 50% particles under given diameter / Particle Diameter, 90% particles under given diameter: laser diffraction; for Particle Diameter, 10% particles under given diameter: 10% of particles under given diameter; for Particle Diameter, 50% particles under given diameter: 50% of particles under given diameter; for Particle Diameter, 90% particles under given diameter: 90% of particles under given diameter. The procedure:
The sizes of the crystals of one batch of Product A ((5-fluoro-2-methyl-3-quinolin-2-ylmethylindo-1-yl)-acetic acid recrystallised from DMSO/water as described above in Example 1, step 4) and three batches of Product B ((5-fluoro-2-methyl-3-quinolin-2-ylmethylindo-1-yl)-acetic acid recrystallised from DMSO/water and then treated with potassium carbonate and citric acid as described above in Example 1, step 4a) were measured by laser diffraction and compared.

Data set [2] is described as follows: Solubility in solvents. The conditions noted are these: in most solvents.
A short description of data set [3]: pKa of the acid. From the text:
The term “weak acid” as used in step (ii) of the method is a term known in the art, and means an acid that partially dissociates in an aqueous solution.

For `Cc1c(Cc2ccc3ccccc3n2)c2cc(F)ccc2n1CC(=O)O` [Product A, (5-fluoro-2-methyl-3-quinolin-2-ylmethylindo-1-yl)-acetic acid], the “Particle Diameter, 10% particles under given diameter” value is 11.93 μm in data set [1] (listed as A) and “less than 10 μm” in data set [1] (listed as product A). Moreover, in data set [1], the “Particle Diameter, 50% particles under given diameter” value was 30.13 μm. For the same compound, the “Particle Diameter, 90% particles under given diameter” value in data set [1] (listed as A) was found to be 52.13 μm.
Consider `Cc1c(Cc2ccc3ccccc3n2)c2cc(F)ccc2n1CC(=O)O` [Product B, (5-fluoro-2-methyl-3-quinolin-2-ylmethylindo-1-yl)-acetic acid], for which the “Particle Diameter, 10% particles under given diameter” value in data set [1] (listed as B (Batch 1)) was found to be 0.10 μm; in data set [1] (listed as B (Batch 2)), 0.20 μm; in data set [1] (listed as B (Batch 3)) it was 0.11 μm. In addition, the results for the “Particle Diameter, 50% particles under given diameter” value in data set [1] (listed as B (Batch 1)), in data set [1] (listed as B (Batch 2)) and in data set [1] (listed as B (Batch 3)) were 0.27 μm, 0.37 μm and 0.31 μm, respectively. For the same compound, the “Particle Diameter, 90% particles under given diameter” value is given as 0.92 μm in data set [1] (listed as B (Batch 1)), 0.80 μm in data set [1] (listed as B (Batch 2)), 1.53 μm in data set [1] (listed as B (Batch 3)) and “less than 2 μm” in data set [1] (listed as product B).
With `Cc1c(Cc2ccc3ccccc3n2)c2cc(F)ccc2n1CC(=O)O` [(5-fluoro-2-methyl-3-quinolin-2-ylmethyl-indol-1-yl)-acetic acid], the solubility result in data set [2] is “sparingly soluble in most solvents”. In addition, the “diameter of 90% of the crystals” value in data set [1] (recrystallised from DMSO/water) was 50-70 μm. Moreover, the pKa in data set [3] was 2.8.

Source of the values: US20100041699A1, “MICROCRYSTALLINE (5-FLUORO-2-METHYL-3-QUINOLIN-2-YLMETHYL-INDOL-1-YL) ACETIC ACID” (OXAGEN LIMITED, priority 2005, published 2010).
